Earlier results as cited in US8354566B2, “Lubricating oil additive and lubricating oil composition containing same” (Chevron Oronite Company LLC, priority 2010, dated 2013).

Tested on: estrogen-inducible strain of yeast
Details: compared among alkylphenols and with 17β-estradiol

Q: Which estrogenic activity does the source give for `CC(C)(C)CC(C)(C)c1ccc(O)cc1` [4-tert-octylphenol, 4-(1,1,3,3-Tetramethyl-butyl)-phenol] here?
A: highest activity
